Laboratory results from patent US20050288307A1, “Anti-viral compounds” (priority 2002, published 2005).
Read-outs that look alike come from different tables or passages of the source.

How the values were obtained:
CDK9/cyclin T1 = CDK9/cyclin T1 (Homo sapiens, UniProt P50750); test: CDK9 assay (CTD peptide substrate); format: biochemical
Experimental: CTD peptide substrate (biotinyl-Ahx-(Tyr-Ser-Pro-Thr-Ser-Pro-Ser)4-NH2; 1-2 mg/mL) and recombinant human CDK7/cyclin H, CDK9/cyclin T1, or CDK9/cyclin K (0.5-2 μg) were incubated for 45 min at 30° C. in the presence of varying amounts of test compound in 20 mM MOPS pH 7.2, 25 mM β-glycerophosphate, 5 mM EGTA, 1 mM DTT, 1 mM sodium vanadate, 15 mM MgCl2, and 100 μM ATP (containing a trace amount of ^32PγATP) in a total volume of 25 μL in a 96-well microtiter plate. The reaction was stopped by placing the plate on ice for 2 min. Avidin (50 μg) was added to each well, and the plate was incubated at room temp for 30 min. The samples were transferred to a 96-well P81 filter plate, and washed (4×200 μL per well) with 75 mM phosphoric acid. Microscint 40 scintillation liquid (50 μL) was added to each well, and the amount of ^32P incorporation for each sample was measured using a Packard Topcount microplate scintillation counter.

CDK2/Cyclin E = molecular target: T1, CDK2/Cyclin E (Homo sapiens, UniProt P24941); test: CDK2/cyclin E kinase assay (GST-Rb phosphorylation); format: biochemical;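 also: enzyme source: His-tagged CDK2/cyclin E complex co-expressed recombinantly in Sf9 insect cells using baculovirus constructs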
T1 construct: His; made in house; host or cells: Sf9 insect cells (baculovirus)

CDK4/Cyclin D1 = CDK4/Cyclin D1 (Homo sapiens, UniProt P11802); test: CDK4/cyclin D1 kinase assay (GST-Rb phosphorylation); format: biochemical; settings: Table 3; read-out: Average IC50 CDK4 cyclin D1
CDK1/Cyclin B = CDK1/Cyclin B (Homo sapiens, UniProt P06493); test: CDK1/cyclin B kinase assay (GST-Rb phosphorylation);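 also: Enzyme: His-tagged CDK1/Cyclin B co-expressed in baculovirus-infected Sf9 insect cells, purified via metal-chelate chromatography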
[1] = Table 3, read-out: Average IC50 CDK9 cyclin T1
[2] = Table 3, read-out: Average IC50 CDK2 cyclin E1
[3] = Table 4, read-out: Kinase Inhibition IC50 CDK9-cyclin T1

Sequence of CDK1/Cyclin B (P06493 whole entry, species assumed): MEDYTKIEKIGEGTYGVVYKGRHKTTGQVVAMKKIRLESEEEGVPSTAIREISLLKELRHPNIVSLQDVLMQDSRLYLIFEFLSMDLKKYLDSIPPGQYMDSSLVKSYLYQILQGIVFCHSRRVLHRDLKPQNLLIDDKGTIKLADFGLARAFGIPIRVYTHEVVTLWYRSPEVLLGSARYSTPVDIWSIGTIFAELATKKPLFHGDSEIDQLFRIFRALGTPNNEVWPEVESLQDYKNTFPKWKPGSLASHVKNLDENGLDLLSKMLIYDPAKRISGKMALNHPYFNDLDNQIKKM
Sequence of CDK1/Cyclin B (P14635 whole entry partner, species assumed): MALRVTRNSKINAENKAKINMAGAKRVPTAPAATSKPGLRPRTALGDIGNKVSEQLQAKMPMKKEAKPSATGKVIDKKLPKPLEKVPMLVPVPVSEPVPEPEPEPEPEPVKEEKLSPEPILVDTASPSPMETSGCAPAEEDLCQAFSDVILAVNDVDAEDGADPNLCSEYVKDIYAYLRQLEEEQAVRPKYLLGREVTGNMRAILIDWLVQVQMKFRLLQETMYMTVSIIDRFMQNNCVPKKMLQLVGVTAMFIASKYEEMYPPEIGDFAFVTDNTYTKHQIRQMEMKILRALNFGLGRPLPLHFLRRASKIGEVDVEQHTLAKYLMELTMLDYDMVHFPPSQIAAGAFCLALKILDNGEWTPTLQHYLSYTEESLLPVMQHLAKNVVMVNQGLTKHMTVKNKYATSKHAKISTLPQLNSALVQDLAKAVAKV
Sequence of CDK9/cyclin T1 (P50750 whole entry): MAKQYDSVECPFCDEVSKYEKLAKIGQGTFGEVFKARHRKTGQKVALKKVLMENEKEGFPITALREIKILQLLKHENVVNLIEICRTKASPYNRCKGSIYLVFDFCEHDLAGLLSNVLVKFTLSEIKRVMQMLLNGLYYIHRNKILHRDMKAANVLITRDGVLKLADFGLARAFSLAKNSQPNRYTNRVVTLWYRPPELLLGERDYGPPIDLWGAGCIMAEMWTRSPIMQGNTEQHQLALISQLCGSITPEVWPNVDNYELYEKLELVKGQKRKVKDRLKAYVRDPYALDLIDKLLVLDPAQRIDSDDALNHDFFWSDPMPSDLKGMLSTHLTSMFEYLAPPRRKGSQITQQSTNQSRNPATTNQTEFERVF
Sequence of CDK9/cyclin T1 (O60563 whole entry partner): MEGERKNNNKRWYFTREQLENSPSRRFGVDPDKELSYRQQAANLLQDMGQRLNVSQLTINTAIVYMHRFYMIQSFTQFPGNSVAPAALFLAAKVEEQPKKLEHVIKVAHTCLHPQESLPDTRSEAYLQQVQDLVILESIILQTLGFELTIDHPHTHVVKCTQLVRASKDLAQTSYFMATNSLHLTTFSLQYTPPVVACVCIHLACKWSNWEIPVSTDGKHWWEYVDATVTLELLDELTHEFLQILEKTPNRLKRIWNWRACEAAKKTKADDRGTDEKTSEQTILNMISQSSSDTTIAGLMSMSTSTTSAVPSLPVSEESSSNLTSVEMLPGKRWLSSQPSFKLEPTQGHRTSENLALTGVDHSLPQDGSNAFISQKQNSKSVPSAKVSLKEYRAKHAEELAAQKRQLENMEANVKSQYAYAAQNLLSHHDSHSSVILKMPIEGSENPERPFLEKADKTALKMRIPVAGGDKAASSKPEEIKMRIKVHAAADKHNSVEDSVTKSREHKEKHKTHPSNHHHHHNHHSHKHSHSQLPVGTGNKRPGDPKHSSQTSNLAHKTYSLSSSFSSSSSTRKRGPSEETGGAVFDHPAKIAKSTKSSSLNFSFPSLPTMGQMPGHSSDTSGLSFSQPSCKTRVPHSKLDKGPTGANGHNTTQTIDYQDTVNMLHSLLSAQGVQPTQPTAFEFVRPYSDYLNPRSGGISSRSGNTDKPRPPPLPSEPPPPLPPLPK
Sequence of CDK4/Cyclin D1 (P11802 whole entry, species assumed): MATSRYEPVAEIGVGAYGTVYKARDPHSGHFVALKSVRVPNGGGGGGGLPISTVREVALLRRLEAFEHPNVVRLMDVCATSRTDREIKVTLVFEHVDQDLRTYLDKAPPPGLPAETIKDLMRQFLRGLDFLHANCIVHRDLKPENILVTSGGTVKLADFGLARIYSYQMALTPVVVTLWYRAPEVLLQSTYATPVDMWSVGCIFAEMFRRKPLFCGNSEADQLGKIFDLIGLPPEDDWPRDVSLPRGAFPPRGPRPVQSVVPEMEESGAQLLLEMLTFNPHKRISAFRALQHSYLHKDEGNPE
Sequence of CDK4/Cyclin D1 (P24385 whole entry partner, species assumed): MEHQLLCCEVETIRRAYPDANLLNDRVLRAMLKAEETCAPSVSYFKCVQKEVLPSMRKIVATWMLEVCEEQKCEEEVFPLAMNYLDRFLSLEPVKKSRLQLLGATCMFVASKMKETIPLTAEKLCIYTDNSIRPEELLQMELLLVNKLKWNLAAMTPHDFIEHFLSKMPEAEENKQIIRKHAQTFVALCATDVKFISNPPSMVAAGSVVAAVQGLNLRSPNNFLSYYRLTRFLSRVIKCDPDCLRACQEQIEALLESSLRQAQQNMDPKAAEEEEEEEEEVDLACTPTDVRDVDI

Row | Compound | IC50 (CDK9/cyclin T1; [1]) [nM] | IC50 (CDK2/Cyclin E; [2]) [nM] | also measured
1 | Cc1nc(C)c(-c2ccnc(Nc3ccc(F)c(F)c3)n2)s1 [Compound 23, (3,4-Difluoro-phenyl)-[4-(2,4-dimethyl-thiazol-5-yl)-pyrimidin-2-yl]-amine] | 3110 | – | –
2 | COc1ccccc1Nc1nccc(-c2sc(C)nc2C)n1 [Compound 24, [4-(2,4-Dimethyl-thiazol-5-yl)-pyrimidin-2-yl]-(2-methoxy-phenyl)-amine] | – | 6300 | –
3 | Cc1nc(C)c(-c2ccnc(Nc3ccc(Cl)cc3)n2)s1 [Compound 2, (4-Chloro-phenyl)-[4-(2,4-dimethyl-thiazol-5-yl)-pyrimidin-2-yl]-amine] | – | – | IC50 (CDK2/Cyclin E): 5100 nM; IC50 (CDK1/Cyclin B): 14000 nM
4 | Cc1nc(C)c(-c2ccnc(Nc3cc(F)cc(F)c3)n2)s1 [Compound 10, (3,5-Difluoro-phenyl)-[4-(2,4-dimethyl-thiazol-5-yl)-pyrimidin-2-yl]-amine] | – | 5900 | IC50 (CDK1/Cyclin B): 5500 nM
5 | Cc1nc(C)c(-c2ccnc(Nc3cccc(F)c3)n2)s1 [Compound 22, [4-(2,4-Dimethyl-thiazol-5-yl)-pyrimidin-2-yl]-(3-fluoro-phenyl)-amine] | – | 220 | –
6 | C=CCNc1nc(C)c(-c2ccnc(Nc3ccc(F)cc3)n2)s1 [Compound 67, [4-(2-Allylamino-4-methyl-thiazol-5-yl)-pyrimidin-2-yl]-(4-fluoro-phenyl)-amine] | – | 1300 | –
7 | Cc1c(-c2ccnc(Nc3ccc(F)cc3)n2)sc(=O)n1C [Compound 155, 5-[2-(4-Fluoro-phenylamino)-pyrimidin-4-yl]-3,4-dimethyl-3H-thiazol-2-one] | – | – | IC50 (CDK9/cyclin T1; [3]): 2.7 nM
8 | C=CCNc1nc(C)c(-c2ccnc(Nc3cccc([N+](=O)[O-])c3)n2)s1 [Compound 69, [4-(2-Allylamino-4-methyl-thiazol-5-yl)-pyrimidin-2-yl]-(3-nitro-phenyl)-amine] | 68 | – | –
9 | CCNc1nc(C)c(-c2ccnc(Nc3ccc(F)cc3)n2)s1 [Compound 60, [4-(2-Ethylamino-4-methyl-thiazol-5-yl)-pyrimidin-2-yl]-(4-fluoro-phenyl)-amine] | – | 510 | –
10 | Cc1c(-c2ccnc(Nc3ccc(O)cc3)n2)sc(=O)n1C [Compound 152, 5-[2-(4-Hydroxy-phenylamino)-pyrimidin-4-yl]-3,4-dimethyl-3H-thiazol-2-one] | – | – | IC50 (CDK9/cyclin T1; [3]): 2.3 nM
11 | Cc1nc(C)c(-c2ccnc(Nc3ccc(C(=O)O)cc3)n2)s1 [Compound 40, 4-[4-(2,4-Dimethyl-thiazol-5-yl)-pyrimidin-2-ylamino]-benzoic acid] | – | 740 | –
12 | CNc1nc(C)c(-c2ccnc(Nc3cccc([N+](=O)[O-])c3)n2)s1 [Compound 61, [4-(4-Methyl-2-methylamino-thiazol-5-yl)-pyrimidin-2-yl]-(3-nitro-phenyl)-amine] | 190 | 2100 | –
13 | Cc1nc(C)c(-c2ccnc(Nc3cccc(I)c3)n2)s1 [Compound 20, [4-(2,4-Dimethyl-thiazol-5-yl)-pyrimidin-2-yl]-(3-iodo-phenyl)-amine] | – | 6800 | –
14 | Cc1nc(C)c(-c2ccnc(Nc3ccccc3F)n2)s1 [Compound 7, [4-(2,4-Dimethyl-thiazol-5-yl)-pyrimidin-2-yl]-(2-fluoro-phenyl)-amine] | – | – | IC50 (CDK1/Cyclin B): 12000 nM
15 | Cc1nc(C)c(-c2ccnc(Nc3cc(Cl)cc(Cl)c3)n2)s1 [Compound 11, (3,5-Dichloro-phenyl)-[4-(2,4-dimethyl-thiazol-5-yl)-pyrimidin-2-yl]-amine] | – | 10000 | IC50 (CDK1/Cyclin B): 20000 nM
16 | Cc1nc(C)c(-c2cc(Br)nc(Nc3cccc([N+](=O)[O-])c3)n2)s1 [Compound 41, [4-Bromo-6-(2,4-dimethyl-thiazol-5-yl)-pyrimidin-2-yl]-(3-nitro-phenyl)-amine] | – | 580 | –
17 | CNc1nc(C)c(-c2ccnc(Nc3cccc(Br)c3)n2)s1 [Compound 68, (3-Bromo-phenyl)-[4-(4-methyl-2-methylamino-thiazol-5-yl)-pyrimidin-2-yl]-amine] | 10 | 27000 | –
18 | Cc1cc(Nc2nccc(-c3sc(=O)n(C)c3C)n2)ccc1F [Compound 162, 5-[2-(4-Fluoro-3-methyl-phenylamino)-pyrimidin-4-yl]-3,4-dimethyl-3H-thiazol-2-one] | – | – | IC50 (CDK9/cyclin T1; [3]): 79 nM
19 | COc1cccc(Nc2nccc(-c3sc(C)nc3C)n2)c1 [Compound 25, [4-(2,4-Dimethyl-thiazol-5-yl)-pyrimidin-2-yl]-(3-methoxy-phenyl)-amine] | – | 440 | –
20 | Cc1nc(C)c(-c2ccnc(Nc3ccc(Cl)cc3Cl)n2)s1 [Compound 12, (2,4-Dichloro-phenyl)-[4-(2,4-dimethyl-thiazol-5-yl)-pyrimidin-2-yl]-amine] | – | 10000 | –
21 | CNc1nc(C)c(-c2ccnc(Nc3ccc(O)c([N+](=O)[O-])c3)n2)s1 [Compound 58, 4-[4-(4-Methyl-2-methylamino-thiazol-5-yl)-pyrimidin-2-ylamino]-2-nitro-phenol] | 61 | 1500 | –

Second part, led by results:

Row | IC50 (CDK9/cyclin T1; [1]) [nM] | IC50 (CDK2/Cyclin E; [2]) [nM] | Compound | also measured
22 | – | 890 | Cc1nc(N(C)C)sc1-c1ccnc(Nc2cccc(Cl)c2)n1 [Compound 143, (3-Chloro-phenyl)-[4-(2-dimethylamino-4-methyl-thiazol-5-yl)-pyrimidin-2-yl]-amine] | IC50 (CDK4/Cyclin D1): 5400 nM
23 | – | 1 | CNc1nc(C)c(-c2ccnc(Nc3ccc(OC)cc3)n2)s1 [Compound 93, (4-Methoxy-phenyl)-[4-(4-methyl-2-methylamino-thiazol-5-yl)-pyrimidin-2-yl]-amine] | –
24 | – | 1900 | CNc1nc(C)c(-c2ccnc(Nc3ccc(C(F)(F)F)cc3)n2)s1 [Compound 74, [4-(4-Methyl-2-methylamino-thiazol-5-yl)-pyrimidin-2-yl]-(4-trifluoromethyl-phenyl)-amine] | –
25 | – | 190 | Cc1nc(C)c(-c2ccnc(Nc3cccc(CO)c3)n2)s1 [Compound 100, {3-[4-(2,4-Dimethyl-thiazol-5-yl)-pyrimidin-2-ylamino]-phenyl}-methanol] | –
26 | 170 | – | CNc1nc(C)c(-c2ccnc(Nc3ccc(N(C)C)cc3)n2)s1 [Compound 131, N,N-Dimethyl-N′-[4-(4-methyl-2-methylamino-thiazol-5-yl)-pyrimidin-2-yl]-benzene-1,4-diamine] | –
27 | – | 1200 | COc1ccc(Nc2nccc(-c3sc(C)nc3C)n2)c(O)c1 [Compound 79, 2-[4-(2,4-Dimethyl-thiazol-5-yl)-pyrimidin-2-ylamino]-5-methoxy-phenol] | –
28 | – | 120 | O=[N+]([O-])c1ccc(Nc2ncc(-c3ccnc(Nc4ccc(O)cc4)n3)s2)cc1 [Compound 95, 4-{4-[2-(4-Nitro-phenylamino)-thiazol-5-yl]-pyrimidin-2-ylamino}-phenol] | –
29 | 63 | 1300 | CNc1nc(C)c(-c2ccnc(Nc3cccc(F)c3)n2)s1 [Compound 87, (3-Fluoro-phenyl)-[4-(4-methyl-2-methylamino-thiazol-5-yl)-pyrimidin-2-yl]-amine] | –
30 | 110 | – | CNc1nc(C)c(-c2ccnc(Nc3ccc(I)c([N+](=O)[O-])c3)n2)s1 [Compound 132, (4-Iodo-3-nitro-phenyl)-[4-(4-methyl-2-methylamino-thiazol-5-yl)-pyrimidin-2-yl]-amine] | –
31 | 240 | – | Cc1nc(N)sc1-c1ccnc(Nc2ccc(N(C)C)cc2)n1 [Compound 106, N-[4-(2-Amino-4-methyl-thiazol-5-yl)-pyrimidin-2-yl]-N′,N′-dimethyl-benzene-1,4-diamine] | –
32 | – | 2000 | COC(=O)c1cc(Nc2nccc(-c3sc(C)nc3C)n2)ccc1Cl [Compound 83, 2-Chloro-5-[4-(2,4-dimethyl-thiazol-5-yl)-pyrimidin-2-ylamino]-benzoic acid methyl ester] | –
33 | 4 | – | Cc1nc(NCCO)sc1-c1ccnc(Nc2cccc([N+](=O)[O-])c2)n1 [Compound 144, 2-{4-Methyl-5-[2-(3-nitro-phenylamino)-pyrimidin-4-yl]-thiazol-2-ylamino}-ethanol] | –
34 | 8 | – | Cc1nc(NCCO)sc1-c1ccnc(Nc2ccc(F)cc2)n1 [Compound 145, 2-{5-[2-(4-Fluoro-phenylamino)-pyrimidin-4-yl]-4-methyl-thiazol-2-ylamino}-ethanol] | –
35 | – | 670 | COc1ccc(Nc2nccc(-c3sc(N)nc3C)n2)cc1 [Compound 111, [4-(2-Amino-4-methyl-thiazol-5-yl)-pyrimidin-2-yl]-(4-methoxy-phenyl)-amine] | –
36 | 480 | 310 | CNc1nc(C)c(-c2ccnc(Nc3cccc(OC)c3)n2)s1 [Compound 73, (3-Methoxy-phenyl)-[4-(4-methyl-2-methylamino-thiazol-5-yl)-pyrimidin-2-yl]-amine] | –
37 | 5900 | 2000 | CCNc1nc(C)c(-c2ccnc(Nc3ccc(Cl)cc3)n2)s1 [Compound 134, (4-Chloro-phenyl)-[4-(2-ethylamino-4-methyl-thiazol-5-yl)-pyrimidin-2-yl]-amine] | IC50 (CDK1/Cyclin B): 22000 nM
38 | 280 | – | Cc1nc(N)sc1-c1ccnc(Nc2cccc(Br)c2)n1 [Compound 119, [4-(2-Amino-4-methyl-thiazol-5-yl)-pyrimidin-2-yl]-(3-bromo-phenyl)-amine] | –
